Source: US20080161278A1, “2-Azetidinyl-4-(1H-Pyrazol-3-Ylamino) Pyrimidines as Inhibitors of Insulin-Like Growth Factor-1 Receptor Activity” (ASTRAZENECA AB, priority 2005, published 2008)

Test system: murine fibroblasts (NIH3T3) over-expressing human IGF-1 receptor
Assay: Test (c): inhibition of IGF-stimulated cell proliferation (BrdU incorporation)
Type: cell-based
Conditions: Mus musculus
Experimental: c) Inhibition of IGF-Stimulated Cell Proliferation
The construction of murine fibroblasts (NIH3T3) over-expressing human IGF-1 receptor has been described by Lammers et al (EMBO J, 8, 1369-1375, 1989). These cells show a proliferative response to IGF-I which can be measured by BrdU incorporation into newly synthesised DNA. Compound potency was determined as causing inhibition of the IGF-stimulated proliferation in the following assay:
Compounds are initially dissolved in DMSO to 10 mM, followed by dilutions in DMEM+1% FCS+glutamine to give a range from […] in 1-0.00045% DMSO final concentration in assay well.
Exponentially growing NIH3T3/IGFR cells were harvested and seeded in complete growth medium into a flat-bottomed 96 well tissue culture grade plate (Costar 3525) at 1.2×10^4 cells per well in a volume of 100 μl.
Growth medium was carefully removed from each well using a multi-channel pipette. Wells were carefully rinsed three times with 200 μl with HBSS. 100 μl of starvation medium was added to each well and the plate was re-incubated for 24 hours.
50 μl of a 4× concentrate of test compound was added to appropriate wells. Cells were incubated for 30 minutes with compound alone before the addition of IGF. […]
The incorporation of BrdU in the cells (after a 4 h incorporation period) was assessed using the BrdU Cell Proliferation Elisa according to the manufacturer's protocol.

Structure (SMILES) | IC50
Cc1cc(Nc2cc(N3CCOCC3)nc(N3CCC3c3cc(-c4ccccn4)no3)n2)n[nH]1 (centres unmarked) [Example 2, 6-Morpholino-2-{2-[3-(pyrid-2-yl)isoxazol-5-yl]azetidin-1-yl}-4-(5-methyl-1H-pyrazol-3-ylamino)pyrimidine] | 0.04 µM
Cc1cc(Nc2cc(C)[nH]n2)nc(N2CCC2c2cc(-c3ccccn3)no2)n1 (centres unmarked) [Example 4, 6-Methyl-2-{2-[3-(pyrid-2-yl)isoxazol-5-yl]azetidin-1-yl}-4-(5-methyl-1H-pyrazol-3-ylamino)pyrimidine] | 0.06 µM
